Test results reported in ChEMBL document CHEMBL1201862, “PubChem BioAssay data set” (2004).
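Step 1: Grow cells in 96-well plates. Step 2: Expose to compound for 48 hours at 5 concentrations. Step 3: Interpolate endpoints linearly; if unreached, use highest concentration. Abbreviation: GI50, concentration required for 50% inhibition of growth.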 Calls of active or inactive are those of the source. No stated cut-off is given here; in the data, active = GI50 up to about 1.1 µM and inactive = higher.

Tests used:
Assay in all cases: inhibition of tumour cell growth, NCI panel, 48 h
A498 = system: A498
BT-549 = system: BT-549
HCT-116 = system: HCT-116
HL-60 = system: HL-60
HOP-62 = system: HOP-62
HOP-92 = system: HOP-92
Hs-578T = system: Hs-578T
MDA-N = system: MDA-N
MOLT-4 = system: MOLT-4
Malme-3M = system: Malme-3M
NCI-H23 = system: NCI-H23
NCI/ADR-RES = system: NCI/ADR-RES
OVCAR-8 = system: OVCAR-8
RPMI-8226 = system: RPMI-8226
SK-MEL-2 = system: SK-MEL-2
SK-MEL-5 = system: SK-MEL-5
SN12C = system: SN12C
T47D = system: T47D
UACC-257 = system: UACC-257
UACC-62 = system: UACC-62

In the case of `Cc1ccc(S(=O)(=O)NNC2(NS(=O)(=O)c3ccc(Cl)cc3)C(Cl)=C(Cl)C(=O)c3ccccc32)cc1` (stereo not given), the GI50 (A498) is reported as 17.8 µM (inactive), the GI50 (BT-549) is reported as 14.9 µM (inactive) and the GI50 (HCT-116) is reported as 17.9 µM (inactive). The GI50 (HL-60) was 14.4 µM (inactive), the GI50 (HOP-62) was 21.3 µM (inactive) and the GI50 (HOP-92) was 17.3 µM (inactive). The GI50 (Hs-578T) was 17.2 µM (inactive), the GI50 (MDA-N) was 17.4 µM (inactive) and the GI50 (MOLT-4) was 25.6 µM (inactive). For the same compound, the GI50 (Malme-3M) was 17.3 µM (inactive), the GI50 (NCI-H23) was 15 µM (inactive) and the GI50 (NCI/ADR-RES) was 23.1 µM (inactive). The GI50 (OVCAR-8) was 21.6 µM (inactive), the GI50 (RPMI-8226) was 5.4 µM (inactive) and the GI50 (SK-MEL-2) was 20 µM (inactive). The GI50 (SK-MEL-5) was 15.2 µM (inactive), the GI50 (SN12C) was 17 µM (inactive) and the GI50 (T47D) was 28.3 µM (inactive). For the same compound, the GI50 (UACC-257) was 17.6 µM (inactive) and the GI50 (UACC-62) was 16.6 µM (inactive).
In the case of `CC(C)C[C@H](NC(=O)CCc1ccccc1)B(O)O`, the GI50 (A498) is reported as 3.19 µM (inactive), the GI50 (BT-549) is reported as 17.5 µM (inactive) and the GI50 (HCT-116) is reported as 5.87 µM (inactive). For the same compound, the GI50 (HL-60) was 2.15 µM (inactive), the GI50 (HOP-62) was 16.8 µM (inactive) and the GI50 (HOP-92) was 29.4 µM (inactive). For the same compound, the GI50 (Hs-578T) was 5.78 µM (inactive), the GI50 (MDA-N) was 2.49 µM (inactive) and the GI50 (MOLT-4) was 3.04 µM (inactive). The GI50 (Malme-3M) was 11.7 µM (inactive), the GI50 (NCI-H23) was 16.5 µM (inactive) and the GI50 (NCI/ADR-RES) was 22.7 µM (inactive). For the same compound, the GI50 (OVCAR-8) was 19.7 µM (inactive), the GI50 (RPMI-8226) was 2.24 µM (inactive) and the GI50 (SK-MEL-2) was 12.7 µM (inactive). For the same compound, the GI50 (SK-MEL-5) was 8.45 µM (inactive), the GI50 (SN12C) was 16.8 µM (inactive) and the GI50 (T47D) was 18.7 µM (inactive). For the same compound, the GI50 (UACC-257) was 12.5 µM (inactive) and the GI50 (UACC-62) was 14.8 µM (inactive).
With `COC(=O)/C=C\C(C#N)(C#N)/N=C/c1ccsc1` the GI50 (A498) was 18.8 µM (inactive), the GI50 (BT-549) was 1.84 µM (inactive) and the GI50 (HCT-116) was 1.75 µM (inactive). The GI50 (HL-60) was 0.429 µM (active), the GI50 (HOP-62) was 16.9 µM (inactive) and the GI50 (HOP-92) was 1.74 µM (inactive). For the same compound, the GI50 (Hs-578T) was 10.6 µM (inactive), the GI50 (MDA-N) was 3.83 µM (inactive) and the GI50 (MOLT-4) was 1.16 µM (inactive). For the same compound, the GI50 (Malme-3M) was 1.51 µM (inactive), the GI50 (NCI-H23) was 7.45 µM (inactive) and the GI50 (NCI/ADR-RES) was 2.54 µM (inactive). For the same compound, the GI50 (OVCAR-8) was 4.19 µM (inactive), the GI50 (RPMI-8226) was 1.25 µM (inactive) and the GI50 (SK-MEL-2) was 16.9 µM (inactive). For the same compound, the GI50 (SK-MEL-5) was 4.66 µM (inactive), the GI50 (SN12C) was 5.33 µM (inactive) and the GI50 (T47D) was 1.86 µM (inactive). The GI50 (UACC-257) was 4.45 µM (inactive) and the GI50 (UACC-62) was 4.8 µM (inactive).
